Experimental findings from article PMC3770053 (Biochemistry, 2013) are described below.

Common to all, as to assay: stopped-flow fluorescence titration, T
Holding throughout (format): binding

In experiment [1] the target is Pol I(KF) (Klenow fragment of E. coli DNA polymerase I), N-His6/D424A/L744C/C907S, termed WT (Escherichia coli, UniProt P00582, C907S/D424A/E710Q/L744C).
The target of experiment [2] is Pol I(KF) (Klenow fragment of E. coli DNA polymerase I), N-His6/D424A/L744C/C907S, termed WT (Escherichia coli, UniProt P00582, C907S/D424A/L744C/Y766A).
Experiment [3] concerns the target Pol I(KF) (Klenow fragment of E. coli DNA polymerase I), N-His6/D424A/L744C/C907S, termed WT (Escherichia coli, UniProt P00582, C907S/D424A/L744C/Y766F).
In experiment [4] the target is Pol I(KF) (Klenow fragment of E. coli DNA polymerase I), N-His6/D424A/L744C/C907S, termed WT (Escherichia coli, UniProt P00582, C907S/D424A/E710A/L744C).
Experiment [5] addresses Pol I(KF) (Klenow fragment of E. coli DNA polymerase I), N-His6/D424A/L744C/C907S, termed WT (Escherichia coli, UniProt P00582, C907S/D424A/L744C).

Consider `Nc1nc2c(ncn2[C@H]2C[C@H](O)[C@@H](COP(=O)(O)OP(=O)(O)OP(=O)(O)O)O2)c(=O)[nH]1` [dGTP], for which the Kd in experiment [1] turned out to be 10 ± 1 µM; in experiment [2], 2.9 ± 2 µM; in experiment [3] it was 5.9 ± 2.4 µM; in experiment [4], 46 ± 13 µM.

For the molecule `Nc1nc2c(ncn2[C@@H]2O[C@H](COP(=O)(O)OP(=O)(O)OP(=O)(O)O)[C@@H](O)[C@H]2O)c(=O)[nH]1` [rGTP], the Kd in experiment [2] is 13 µM; in experiment [3] it was 68 µM; in experiment [5] it was 41 µM.

The term Kd denotes the equilibrium constant for the complex coming apart. High values mean lower affinity, low ones higher affinity.
